Laboratory results from patent US20250360132A1, “METHODS OF ADMINISTERING MYOSIN INHIBITORS” (MYOKARDIA, INC., priority 2022, published 2025).

What was measured:
[1] = tested on: patients with HCM and healthy subjects; assay: Human experience of overdose / high doses; assay type: in vivo
[2] = target: CYP3A4 (Homo sapiens, UniProt P08684); assay: Clinical DDI with moderate CYP3A4 inhibitor verapamil; assay type: in vivo; set-up: host or cells: in silico (Simcyp v19 where stated); details: mavacamten 25 mg with verapamil sustained release 240 mg; CYP2C19 IMs and NMs
[3] = tested on: virtual oHCM patients; assay: Exposure-response simulation of titration Regimen #2; set-up: species or system human; details: CYP2C19 phenotype distribution in the EU population
Text: Mavacamten has substantial pharmacokinetic (PK) variability, the largest contributor being CYP2C19 phenotype. Beyond phenotype, and after incorporation of all PK covariates, a moderate inter-individual variability remains. As a result of the PK variability, there is a need to achieve an ideal balance of reducing the Valsalva left ventricular outflow tract gradient (VLVOT) while maintaining the patient's left ventricular ejection fraction (LVEF), and an echocardiogram (ECHO) based titration regimen was developed. Modeling and simulation analyses have been undertaken to further evaluate dose titration by CYP2C19 phenotype.
In addition, an exposure-response simulation-based approach was utilized to investigate multiple titration regimens using an equal distribution of CYP2C19 phenotype to allow for additional sensitivity in assessing the performance of the titration regimen for each phenotype. The evaluations included genotype specific dosing and titration, adjusted starting dose of 2.5 mg and additional monitoring intervals. For each posology investigated, the key objectives remained consistent: to limit the percent (%) of simulated patients experiencing LVEF <50%, while gradually up-titrating them to achieve VLVOT <30 mmHg. This Example outlines the evaluation of 3 titration regimens, described below.
The methods used to conduct the simulations are described as follows. […]

[4] = target: P-gp (Homo sapiens, UniProt P08183); assay: In vitro transporter inhibition; assay type: in vitro ADME
[5] = tested on: organic anion transporters (OATs); assay: In vitro transporter inhibition; assay type: in vitro ADME
[6] = target: BSEP (Homo sapiens, UniProt O95342); assay: In vitro transporter inhibition; assay type: in vitro ADME
[7] = tested on: bacterial; assay type: cell-based
Text: Mavacamten was not genotoxic in a bacterial reverse mutation test (Ames test), a human in vitro lymphocyte […] assay, or a rat in vivo micronucleus assay.

[8] = tested on: pregnant rats; assay: Embryo-fetal development study in rats; assay type: in vivo, rat
Text: Plasma exposure (based on area under the concentration-time curve or AUC) at the no-effect dose for embryo-fetal development in rats is 0.3 times the exposure in humans at the MRHD.

[9] = Clinical pharmacokinetics; assay type: in vivo, human
Protocol: At the same dose level of MAVACAMTEN, 170% higher exposures of mavacamten are observed in patients with HCM compared to healthy subjects.
The Tmax was increased by 4 hours.
Mavacamten has a variable terminal t1/2 that depends on CYP2C19 metabolic status. […] Drug accumulation occurs with an accumulation ratio of about 2-fold for Cmax and about 7-fold for AUC in CYP2C19 NMs. The accumulation depends on the metabolism status for CYP2C19 with the largest accumulation observed in CYP2C19 PMs. At steady-state, the peak-to-trough plasma concentration ratio with once daily dosing is approximately 1.5.
Following a single 25 mg dose of radiolabeled mavacamten, 7% of the dose was recovered in feces (1% unchanged) and 85% in urine (3% unchanged).
The effects of severe (eGFR: 15 to 30 mL/min/1.73 m^2) renal impairment and kidney failure (eGFR: <15 mL/min/1.73 m^2; including patients on dialysis) are unknown.

[10] = tested on: male or female rats; assay: Reproductive toxicity studies (mating and fertility); assay type: in vivo, rat

Sequence of CYP3A4 (P08684 whole entry): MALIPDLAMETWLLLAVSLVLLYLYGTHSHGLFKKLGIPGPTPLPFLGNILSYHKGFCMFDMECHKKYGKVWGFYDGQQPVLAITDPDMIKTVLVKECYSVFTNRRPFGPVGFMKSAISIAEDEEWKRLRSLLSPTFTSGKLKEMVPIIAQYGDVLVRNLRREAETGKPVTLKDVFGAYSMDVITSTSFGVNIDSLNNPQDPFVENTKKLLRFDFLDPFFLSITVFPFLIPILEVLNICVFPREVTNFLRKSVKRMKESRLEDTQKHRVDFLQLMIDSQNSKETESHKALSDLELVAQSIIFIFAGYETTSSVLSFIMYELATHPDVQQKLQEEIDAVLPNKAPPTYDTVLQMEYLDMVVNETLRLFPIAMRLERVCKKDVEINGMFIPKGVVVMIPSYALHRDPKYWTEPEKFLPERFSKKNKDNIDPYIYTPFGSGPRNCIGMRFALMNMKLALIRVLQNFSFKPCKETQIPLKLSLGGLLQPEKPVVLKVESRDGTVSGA
Sequence of P-gp (P08183 whole entry): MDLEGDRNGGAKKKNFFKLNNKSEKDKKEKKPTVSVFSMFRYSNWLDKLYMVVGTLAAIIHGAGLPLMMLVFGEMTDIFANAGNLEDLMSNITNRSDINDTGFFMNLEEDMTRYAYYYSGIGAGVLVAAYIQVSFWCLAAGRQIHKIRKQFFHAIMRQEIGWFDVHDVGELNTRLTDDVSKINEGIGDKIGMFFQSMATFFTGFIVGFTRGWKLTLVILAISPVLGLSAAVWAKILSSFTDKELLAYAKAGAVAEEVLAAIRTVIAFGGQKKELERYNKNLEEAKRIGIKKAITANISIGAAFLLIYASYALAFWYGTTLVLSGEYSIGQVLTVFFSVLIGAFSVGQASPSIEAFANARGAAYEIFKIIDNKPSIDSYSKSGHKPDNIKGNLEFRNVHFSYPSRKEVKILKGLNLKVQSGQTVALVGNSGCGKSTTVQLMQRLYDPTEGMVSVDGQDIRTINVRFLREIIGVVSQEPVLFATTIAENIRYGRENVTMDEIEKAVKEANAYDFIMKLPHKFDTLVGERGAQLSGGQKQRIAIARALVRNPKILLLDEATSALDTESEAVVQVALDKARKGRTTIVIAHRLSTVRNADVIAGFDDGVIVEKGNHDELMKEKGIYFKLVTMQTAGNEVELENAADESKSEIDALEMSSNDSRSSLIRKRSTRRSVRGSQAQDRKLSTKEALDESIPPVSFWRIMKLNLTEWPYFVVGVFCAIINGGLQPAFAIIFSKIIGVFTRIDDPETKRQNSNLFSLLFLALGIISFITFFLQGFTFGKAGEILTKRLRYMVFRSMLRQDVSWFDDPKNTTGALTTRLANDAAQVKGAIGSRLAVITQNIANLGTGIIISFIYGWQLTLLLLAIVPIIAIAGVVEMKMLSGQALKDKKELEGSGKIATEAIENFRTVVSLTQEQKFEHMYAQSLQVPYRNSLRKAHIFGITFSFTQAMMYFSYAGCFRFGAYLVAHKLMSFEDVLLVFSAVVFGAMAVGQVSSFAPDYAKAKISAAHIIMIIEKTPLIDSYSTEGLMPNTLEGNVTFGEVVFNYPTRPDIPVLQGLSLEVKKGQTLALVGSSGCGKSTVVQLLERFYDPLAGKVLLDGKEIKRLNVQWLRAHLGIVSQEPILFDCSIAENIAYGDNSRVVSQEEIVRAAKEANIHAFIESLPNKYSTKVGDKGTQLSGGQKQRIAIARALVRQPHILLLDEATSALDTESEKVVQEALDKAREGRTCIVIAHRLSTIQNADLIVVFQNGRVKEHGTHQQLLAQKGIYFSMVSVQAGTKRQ
Sequence of BSEP (O95342 whole entry): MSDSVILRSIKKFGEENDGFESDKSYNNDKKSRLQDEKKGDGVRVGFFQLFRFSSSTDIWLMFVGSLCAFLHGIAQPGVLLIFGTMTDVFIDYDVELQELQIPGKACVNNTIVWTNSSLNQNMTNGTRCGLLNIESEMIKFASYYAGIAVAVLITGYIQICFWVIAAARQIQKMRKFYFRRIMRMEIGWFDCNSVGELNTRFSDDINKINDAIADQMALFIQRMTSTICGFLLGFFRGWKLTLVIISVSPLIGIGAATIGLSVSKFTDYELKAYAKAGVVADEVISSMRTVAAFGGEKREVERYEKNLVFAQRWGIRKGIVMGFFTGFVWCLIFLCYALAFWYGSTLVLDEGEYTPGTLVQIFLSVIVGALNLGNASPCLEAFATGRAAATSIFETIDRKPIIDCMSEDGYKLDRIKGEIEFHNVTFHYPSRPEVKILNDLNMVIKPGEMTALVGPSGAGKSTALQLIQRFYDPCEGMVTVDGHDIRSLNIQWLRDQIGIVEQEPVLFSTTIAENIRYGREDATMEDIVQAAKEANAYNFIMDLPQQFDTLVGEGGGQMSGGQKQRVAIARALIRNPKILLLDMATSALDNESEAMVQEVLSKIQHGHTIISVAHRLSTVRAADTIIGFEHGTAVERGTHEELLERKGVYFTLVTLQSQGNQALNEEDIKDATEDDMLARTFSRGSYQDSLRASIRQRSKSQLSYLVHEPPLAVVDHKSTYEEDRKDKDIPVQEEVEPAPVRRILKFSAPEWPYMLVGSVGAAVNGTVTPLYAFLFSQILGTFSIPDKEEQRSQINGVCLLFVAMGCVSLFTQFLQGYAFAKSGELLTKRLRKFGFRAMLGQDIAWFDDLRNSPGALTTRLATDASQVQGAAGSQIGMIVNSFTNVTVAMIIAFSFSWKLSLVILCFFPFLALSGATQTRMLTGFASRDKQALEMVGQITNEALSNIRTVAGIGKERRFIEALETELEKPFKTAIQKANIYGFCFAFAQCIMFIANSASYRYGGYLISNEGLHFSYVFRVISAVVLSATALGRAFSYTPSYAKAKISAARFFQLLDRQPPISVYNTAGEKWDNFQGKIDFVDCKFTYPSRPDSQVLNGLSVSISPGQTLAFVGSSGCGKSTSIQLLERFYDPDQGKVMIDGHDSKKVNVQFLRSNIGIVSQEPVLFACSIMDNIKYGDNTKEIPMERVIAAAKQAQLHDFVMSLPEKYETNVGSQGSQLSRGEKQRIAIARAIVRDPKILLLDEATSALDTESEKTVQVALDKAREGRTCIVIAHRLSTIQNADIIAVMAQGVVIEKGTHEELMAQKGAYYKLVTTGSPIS

With CC(C)n1c(=O)cc(N[C@@H](C)c2ccccc2)[nH]c1=O [mavacamten, (S)-3-Isopropyl-6-((1-phenylethyl)amino)pyrimidine-2,4(1H,3H)-dione] the “participants experiencing 20% or greater reductions in LVEF” value ([1]; healthy subjects, 25 mg dose level, up to 25 days) was 3 of 8, the “Outcome of accidental ingestion” value ([1]; infant, three 15 mg capsules) was “infant death” and the “Events after single dose of 144 mg” value ([1]; one subject with HCM, subject recovered) was “serious adverse events including vasovagal reaction, hypotension, and asystole”. For the same compound, the “Increase in mavacamten AUCinf” value [2] was 15%, the “Increase in mavacamten Cmax” value [2] was 52% and the “patients excluded/permanently discontinued overall” value [3] was less than 0.5%. For the same compound, the “Inhibition of P-gp” value [4] was “does not inhibit”, the “Inhibition of OATs” value [5] was “does not inhibit” and the “Inhibition of BSEP” value [6] was “does not inhibit”. The “Genotoxicity, Ames test” value [7] was “not genotoxic”, the “Embryo-fetal findings in the high dose group” value ([8]; oral, 1.5 mg/kg/day, period of organogenesis) was “increases in post-implantation loss, decreases in mean fetal body weight, reductions in fetal ossification of bones, and fetal malformations (visceral and skeletal)” and the “Plasma exposure (AUC) at the no-effect dose for embryo-fetal development vs humans at the MRHD” value ([8]; rats) was 0.3 times. For the same compound, the “Embryo-fetal findings (risk summary)” value ([8]; rats, dose exposures similar to that at the MRHD) was “decreases in mean fetal body weight, reductions in fetal ossification of bones, and increases in post-implantation loss”, the “Pharmacokinetics in specific populations” value ([9]; age 18-82 years, sex, race, ethnicity, mild to moderate renal impairment) was “No clinically significant differences” and the “Effect of food on pharmacokinetics” value ([9]; high fat meal) was “No clinically significant differences”. For the same compound, the “Dose proportionality of exposure” value ([9]; multiple once-daily doses of 1 mg to 15 mg) was “increases generally dose proportionally”, the “Higher exposure in patients with HCM compared to healthy subjects” value ([9]; same dose level) was 170% and the “Effects on viability and fertility of offspring” value ([10]; dams dosed up to 1.5 mg/kg/day) was “no evidence of effects”. The “Plasma exposure (AUC) at the highest dose tested” value ([10]; vs humans at the MRHD) was “the same as in humans at the MRHD”.
